Results reported in patent publication US20250136722A1, “CYTOTOXICITY TARGETING CHIMERAS” (GLAXOSMITHKLINE INTELLECTUAL PROPERTY DEVELOPMENT LIMITED, priority 2021, published 2025).
Several values for one entry are separate records, joined by “and”; a condition that tells them apart may be missing. Equal values may be shown once.

Columns and labels:
[1] = biological target: T1, CHOK1 cells engineered to overexpress human CCR2 (Homo sapiens, UniProt P41597); experiment: Antibody dependent cellular cytotoxicity (ADCC) reporter assay (Example 199); type: cell-based; settings: with anti-cotinine antibody SEQ ID NO: 11/12; CHOK1-human CCR2 target cells, Jurkat FcγRIIIa NFAT-luciferase reporter cells; 12-18 hours; read-out: ADCC Reporter Assay pEC50 (converted)
T1 construct: expressed in transfected cells; host or cells: CHOK1 cells
How it was run: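 Potency is reported as pEC50 from a nonlinear fit, averaged over runs, using luciferase signal divided by that of compound-free wells. The readout comes from NFAT-luciferase Jurkat cells expressing FcγRIIIa, mixed for 12–18 h with human CCR2-overexpressing CHOK1 cells, 1 pM–10 μM ARM compound and 0.01–200 μg/mL Fc-enhanced anti-cotinine IgG1.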

[2] = biological target: Anti-cotinine antibody (SEQ ID NO: 11 / SEQ ID NO: 12, rabbit variable region with human IgG1 Fc domain); experiment: Binding of anti-cotinine antibody to ARM compounds by SPR, Biacore T200, 37° C. (Example 202); settings: pH 7.4, rabbit variable region/human IgG1 Fc antibody captured on protein A
Description: Anti-cotinine antibodies having a heavy chain sequence of SEQ ID NO: 11 and a light chain sequence of SEQ ID NO: 12 (rabbit variable region with human IgG1 Fc domain containing a DE mutation (S239D/1332E)) were captured on one or more flow cells of a protein A sensor chip (Cytiva) using a Biacore T200 while reserving flow cell 1 as a reference. Following capture, a 3000 second wait step was included to reduce drift during compound analysis. ARM compounds of Formula (I) were then injected at 100 μL/min with 200 and 2000 second association and dissociation times. The entire experiment was run at 37° C. with running buffer containing 10 mM HEPES pH 7.4, 150 mM NaCl, 0.005% P20 and 1% DMSO. ARM compounds of Formula (I) were titrated with a top concentration of 200 nM using a 3-fold 5-point dilution series and a corresponding 5-injection buffer cycle was run for blank subtraction. Data were double referenced by subtracting the response of the reference flow cell from that of the antibody-containing flow cell and subsequently subtracting the referenced blank sensorgrams. Following compound analysis, the surface was regenerated using a 30 second injection of pH 1.5 glycine at a flow rate of 30 μL/min after which antibody was re-captured. The experiment was run using Biacore T200 control software and evaluated using Biacore T200 Evaluation software. Curves were fit with a 1:1 kinetic binding model to obtain kon(1/Ms), koff(1/s), Kd (M) determined as koff/kon, and residence time determined as 1/koff. (s).
Anti-cotinine antibody was tested for binding to ARMs compounds of Formula (I) of the invention in the above assay in or more experimental runs and the results are shown in Table 5 below. Affinity is reported as a pKd value. The pKd value is the negative log of the Kd value, wherein the Kd value is the dissociation constant measured in molar (M) as noted above. For compounds tested in more than one experimental run, the pKd value is reported as an average.

| pKd of Antibody for ARM Compound of Formula (I) [2] | SMILES | EC50 [1] |
| --- | --- | --- |
| 9.526 | CC(C)N(C)[C@@H]1CC[C@H](N2CC[C@H](Nc3ncnc4ccc(C(F)(F)F)cc34)C2=O)[C@H](NC(=O)[C@H]2CC[C@H](NC(=O)CCCO[C@H]3CC[C@@H](OCCNC(=O)[C@H]4CC(=O)N(C)[C@@H]4c4cccnc4)CC3)CC2)C1 [Example 4] | 6.3 nM and 2.79 nM and 4.89 nM |
| 9.282 | CC(C)N(C)[C@@H]1CC[C@H](N2CC[C@H](Nc3ncnc4ccc(C(F)(F)F)cc34)C2=O)[C@H](NC(=O)CCOCCNC(=O)CCCO[C@H]2CC[C@@H](OCCNC(=O)[C@H]3CC(=O)N(C)[C@@H]3c3cccnc3)CC2)C1 [Example 6] | 0.378 nM |
| 8.8705 | CC(C)N(C)[C@@H]1CC[C@H](N2CC[C@H](Nc3ncnc4ccc(C(F)(F)F)cc34)C2=O)[C@H](NC(=O)[C@H]2CC[C@H](CNC(=O)CCCC(=O)NCCCOCCCNC(=O)[C@H]3CC(=O)N(C)[C@@H]3c3cccnc3)CC2)C1 [Example 20] | 0.0832 nM |
| 9.3345 | CC(C)N(C)[C@@H]1CC[C@H](N2CC[C@H](Nc3ncnc4ccc(C(F)(F)F)cc34)C2=O)[C@H](NC(=O)C2CCN(C(=O)CCOCCOCCOCCNC(=O)[C@H]3CC(=O)N(C)[C@@H]3c3cccnc3)CC2)C1 [Example 29] | 12.6 nM |
| 9.3015 | CN1C(=O)C[C@H](C(=O)NCCOCCOCCOCCC(=O)N[C@H]2CC[C@H](C(=O)N[C@@H]3C[C@H](NC(C)(C)C)CC[C@@H]3N3CC[C@H](Nc4ncnc5ccc(C(F)(F)F)cc45)C3=O)CC2)[C@H]1c1cccnc1 [Example 31] | 7.94 nM |
| 9.1825 | CC(C)N(C)[C@@H]1CC[C@H](N2CC[C@H](Nc3ncnc4ccc(C(F)(F)F)cc34)C2=O)[C@H](NC(=O)[C@H]2CC[C@H](CNC(=O)CCOCCOCCOCCNC(=O)[C@H]3CC(=O)N(C)[C@@H]3c3cccnc3)CC2)C1 [Example 32] | 1.07 nM and 0.593 nM |
| 9.23 | CC(C)N(C)[C@@H]1CCC(N2CC[C@H](Nc3ncnc4ccc(C(F)(F)F)cc34)C2=O)[C@H](NC(=O)CCOCCOCCOCCOCCOCCOCCOCCOCCNC(=O)[C@H]2CC(=O)N(C)[C@@H]2c2cccnc2)C1 (stereo partly shown) [Example 42] | 0.398 nM |
| 9.074 | CC(C)N(C)[C@@H]1CC[C@H](N2CC[C@H](Nc3ncnc4ccc(C(F)(F)F)cc34)C2=O)[C@H](NC(=O)CCOCCNC(=O)CCOCCNC(=O)CCOCCNC(=O)[C@H]2CC(=O)N(C)[C@@H]2c2cccnc2)C1 [Example 46] | 0.501 nM |
| 9.051 | CC(C)N(C)[C@@H]1CC[C@H](N2CC[C@H](Nc3ncnc4ccc(C(F)(F)F)cc34)C2=O)[C@H](NC(=O)COCCNC(=O)CCOCCNC(=O)CCOCCNC(=O)[C@H]2CC(=O)N(C)[C@@H]2c2cccnc2)C1 [Example 47] | 2.84 nM |
| 9.1485 | CC(C)N(C)[C@@H]1CC[C@H](N2CC[C@H](Nc3ncnc4ccc(C(F)(F)F)cc34)C2=O)[C@H](NC(=O)COCCNC(=O)CCOCCOCCNC(=O)CCNC(=O)[C@H]2CC(=O)N(C)[C@@H]2c2cccnc2)C1 [Example 50] | 1.41 nM |
| 9.5515 | CC(C)N(C)[C@@H]1CC[C@H](N2CC[C@H](Nc3ncnc4ccc(C(F)(F)F)cc34)C2=O)[C@H](NC(=O)[C@H]2C[C@H](NC(=O)CCOC[C@H]3CC[C@H](COCCNC(=O)[C@H]4CC(=O)N(C)[C@@H]4c4cccnc4)CC3)C2)C1 [Example 54] | 1 nM |
| 9.4085 | CC(C)N(C)[C@@H]1CC[C@H](N2CC[C@H](Nc3ncnc4ccc(C(F)(F)F)cc34)C2=O)[C@H](NC(=O)[C@H]2C[C@@H](NC(=O)CCOC[C@H]3CC[C@H](COCCNC(=O)[C@H]4CC(=O)N(C)[C@@H]4c4cccnc4)CC3)C2)C1 [Example 55] | 0.377 nM |
| 9.3185 | CC(C)N(C)[C@@H]1CC[C@H](N2CC[C@H](Nc3ncnc4ccc(C(F)(F)F)cc34)C2=O)[C@H](NC(=O)[C@H]2CC[C@@H](NC(=O)CCCC(=O)NCCCC(=O)NCCCNC(=O)[C@H]3CC(=O)N(C)[C@@H]3c3cccnc3)CC2)C1 [Example 56, N-((1S,4s)-4-(((1R,2S,5R)-5-(Isopropyl(methyl)amino)-2-((S)-2-oxo-3-((6-(trifluoromethyl)quinazolin-4-yl)amino)pyrrolidin-1-yl)cyclohexyl)carbamoyl)cyclohexyl)-N^5-(4-((3-((2S,3S)-1-methyl-5-oxo-2-(pyridin-3-yl)pyrrolidine-3-carboxamido)propyl)amino)-4-oxobutyl)glutaramide] | 0.655 nM and 0.128 nM |
| 8.648 | CN1C(=O)C[C@H](C(=O)NCC(=O)NCCOCCOCCC(=O)N[C@H]2CC[C@@H](C(=O)N[C@@H]3C[C@H](NC(C)(C)C)CC[C@@H]3N3CC[C@H](Nc4ncnc5ccc(C(F)(F)F)cc45)C3=O)CC2)[C@H]1c1cccnc1 [Example 65] | 1.4 nM and 0.498 nM |
| 8.649 | CC(C)N(C)[C@@H]1CC[C@H](N2CC[C@H](Nc3ncnc4ccc(C(F)(F)F)cc34)C2=O)[C@H](NC(=O)[C@H]2C[C@@H](NC(=O)CCOCCOCCNC(=O)CNC(=O)[C@H]3CC(=O)N(C)[C@@H]3c3cccnc3)C2)C1 [Example 66] | 0.431 nM |
| 9.091 | CC(C)N(C)[C@@H]1CC[C@H](N2CC[C@H](Nc3ncnc4ccc(C(F)(F)F)cc34)C2=O)[C@H](NC(=O)COCCOCCNC(=O)COCCNC(=O)CCNC(=O)[C@H]2CC(=O)N(C)[C@@H]2c2cccnc2)C1 [Example 74, (2S,3S)-N-(1-(((1R,2S,5R)-5-(isopropyl(methyl)amino)-2-((S)-2-oxo-3-((6-(trifluoromethyl)quinazolin-4-yl)amino)pyrrolidin-1-yl)cyclohexyl)amino)-1,10,16-trioxo-3,6,12-trioxa-9,15-diazaoctadecan-18-yl)-1-methyl-5-oxo-2-(pyridin-3-yl)pyrrolidine-3-carboxamide] | 9.64 nM |
| 9.103 | CC(C)N(C)[C@@H]1CC[C@H](N2CC[C@H](Nc3ncnc4ccc(C(F)(F)F)cc34)C2=O)[C@H](NC(=O)CCOCCOCCNC(=O)COCCNC(=O)CCNC(=O)[C@H]2CC(=O)N(C)[C@@H]2c2cccnc2)C1 [Example 75] | 1.63 nM |
| 9.126 | CC(C)N(C)[C@@H]1CC[C@H](N2CC[C@H](Nc3ncnc4ccc(C(F)(F)F)cc34)C2=O)[C@H](NC(=O)COCCNC(=O)CCNC(=O)COCCOCCNC(=O)[C@H]2CC(=O)N(C)[C@@H]2c2cccnc2)C1 [Example 79] | 5.2 nM |
| 9.109 | CC(C)N(C)[C@@H]1CC[C@H](N2CC[C@H](Nc3ncnc4ccc(C(F)(F)F)cc34)C2=O)[C@H](NC(=O)COCCNC(=O)CNC(=O)CCOCCOCCNC(=O)[C@H]2CC(=O)N(C)[C@@H]2c2cccnc2)C1 [Example 80] | 1.58 nM |
| 9.302 | CC(C)N(C)[C@@H]1CC[C@H](N2CC[C@H](Nc3ncnc4ccc(C(F)(F)F)cc34)C2=O)[C@H](NC(=O)[C@H]2CC[C@@H](NC(=O)CNC(=O)CCOCCOCCNC(=O)[C@H]3CC(=O)N(C)[C@@H]3c3cccnc3)CC2)C1 [Example 83] | 0.269 nM |
